{
  "source": "paper PMC8994274",
  "about": "“A proteolysis-targeting chimera molecule selectively degrades ENL and inhibits malignant gene expression and tumor growth” (Journal of Hematology & Oncology, 2022)",
  "key": {"[1]": {"system": "Panc1 cells", "experiment": "Antiproliferation assay, Panc1", "settings": "Homo sapiens, PANC-1, 168 h, read-out: Antiproliferative activity, EC50, Panc1"}, "[2]": {"system": "RPMI-8226 cells", "experiment": "Antiproliferation assay (XTT), RPMI-8226", "settings": "Homo sapiens, RPMI-8226, 168 h, read-out: Antiproliferative activity, EC50, RPMI-8226"}, "[3]": {"system": "HoxA11 and HoxA13", "experiment": "qPCR expression of HoxA11 and HoxA13 in mENL-transfected HEK293T cells", "type": "cell-based", "settings": "0.04 μg of the plasmid, 24 h incubation", "method": "Next, we investigated how mENL degradation affect expression of HoxA11 and HoxA13 in this cell model.\n(§1) 5 × 10^5 HEK293T cells were transfected with mENL containing pcDNA3.1(+)-N-DYK plasmid using jetPRIME (Polyplus Transfection) following the manufacturer's protocol. Upon transfection for 4 h, the media were carefully removed and the cells incubated with fresh media containing the specified concentrations of compound 1 for 24 h before further analysis (using Western blot or qPCR as described above)."}, "[4]": {"experiment": "In vivo toxicity in C57BL/6 mice", "settings": "30 mg/kg/day for 13 days", "method": "In vivo antitumor activity of compound 1 was evaluated in a commonly used mouse model of Molm-13 leukemia. First, in vivo toxicity was assessed in C57BL/6 mice. […] Next, 10^6 Molm-13 cells were injected subcutaneously into NOD-SCID mice, which developed palpable tumors in ~ 1 week and grew rapidly."}, "[5]": {"biological_target": "T1, mutant ENL (mENL) (Homo sapiens, UniProt Q03111+Q96SW2, INS117NHL)", "T1 construct": "FLAG (DYK); expressed in transfected cells; host or cells: HEK293T", "T1 sequence (Q03111 with tags, fused parts or gaps INS117NHL)": "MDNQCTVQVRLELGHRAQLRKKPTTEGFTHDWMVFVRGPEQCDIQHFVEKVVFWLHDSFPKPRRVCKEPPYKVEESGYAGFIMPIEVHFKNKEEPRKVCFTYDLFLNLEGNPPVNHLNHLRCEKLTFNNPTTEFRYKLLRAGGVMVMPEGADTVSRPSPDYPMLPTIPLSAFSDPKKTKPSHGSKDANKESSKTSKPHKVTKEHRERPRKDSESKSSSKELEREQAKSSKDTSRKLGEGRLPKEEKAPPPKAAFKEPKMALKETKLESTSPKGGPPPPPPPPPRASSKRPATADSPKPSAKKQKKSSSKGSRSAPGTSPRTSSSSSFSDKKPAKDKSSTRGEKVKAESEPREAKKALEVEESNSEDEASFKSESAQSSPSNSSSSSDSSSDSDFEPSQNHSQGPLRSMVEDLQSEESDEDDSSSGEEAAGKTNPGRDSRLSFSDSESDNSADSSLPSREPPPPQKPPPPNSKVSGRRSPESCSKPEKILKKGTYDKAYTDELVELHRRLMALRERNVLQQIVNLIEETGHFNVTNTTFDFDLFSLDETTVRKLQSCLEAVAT", "T1 sequence (Q96SW2 whole entry, stated change not applied)": "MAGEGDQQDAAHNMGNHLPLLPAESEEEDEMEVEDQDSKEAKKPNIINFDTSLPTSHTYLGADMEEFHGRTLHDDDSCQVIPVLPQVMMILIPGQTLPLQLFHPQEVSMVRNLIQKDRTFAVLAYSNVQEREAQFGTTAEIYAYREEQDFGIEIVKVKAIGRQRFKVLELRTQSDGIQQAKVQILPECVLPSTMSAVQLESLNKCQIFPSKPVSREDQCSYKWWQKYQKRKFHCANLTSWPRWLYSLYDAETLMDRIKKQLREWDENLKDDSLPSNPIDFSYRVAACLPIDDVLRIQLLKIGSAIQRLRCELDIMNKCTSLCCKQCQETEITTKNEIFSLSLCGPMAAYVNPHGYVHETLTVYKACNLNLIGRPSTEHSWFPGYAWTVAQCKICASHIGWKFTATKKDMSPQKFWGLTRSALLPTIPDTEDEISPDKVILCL", "T1 sequence (Q16531 whole entry partner)": "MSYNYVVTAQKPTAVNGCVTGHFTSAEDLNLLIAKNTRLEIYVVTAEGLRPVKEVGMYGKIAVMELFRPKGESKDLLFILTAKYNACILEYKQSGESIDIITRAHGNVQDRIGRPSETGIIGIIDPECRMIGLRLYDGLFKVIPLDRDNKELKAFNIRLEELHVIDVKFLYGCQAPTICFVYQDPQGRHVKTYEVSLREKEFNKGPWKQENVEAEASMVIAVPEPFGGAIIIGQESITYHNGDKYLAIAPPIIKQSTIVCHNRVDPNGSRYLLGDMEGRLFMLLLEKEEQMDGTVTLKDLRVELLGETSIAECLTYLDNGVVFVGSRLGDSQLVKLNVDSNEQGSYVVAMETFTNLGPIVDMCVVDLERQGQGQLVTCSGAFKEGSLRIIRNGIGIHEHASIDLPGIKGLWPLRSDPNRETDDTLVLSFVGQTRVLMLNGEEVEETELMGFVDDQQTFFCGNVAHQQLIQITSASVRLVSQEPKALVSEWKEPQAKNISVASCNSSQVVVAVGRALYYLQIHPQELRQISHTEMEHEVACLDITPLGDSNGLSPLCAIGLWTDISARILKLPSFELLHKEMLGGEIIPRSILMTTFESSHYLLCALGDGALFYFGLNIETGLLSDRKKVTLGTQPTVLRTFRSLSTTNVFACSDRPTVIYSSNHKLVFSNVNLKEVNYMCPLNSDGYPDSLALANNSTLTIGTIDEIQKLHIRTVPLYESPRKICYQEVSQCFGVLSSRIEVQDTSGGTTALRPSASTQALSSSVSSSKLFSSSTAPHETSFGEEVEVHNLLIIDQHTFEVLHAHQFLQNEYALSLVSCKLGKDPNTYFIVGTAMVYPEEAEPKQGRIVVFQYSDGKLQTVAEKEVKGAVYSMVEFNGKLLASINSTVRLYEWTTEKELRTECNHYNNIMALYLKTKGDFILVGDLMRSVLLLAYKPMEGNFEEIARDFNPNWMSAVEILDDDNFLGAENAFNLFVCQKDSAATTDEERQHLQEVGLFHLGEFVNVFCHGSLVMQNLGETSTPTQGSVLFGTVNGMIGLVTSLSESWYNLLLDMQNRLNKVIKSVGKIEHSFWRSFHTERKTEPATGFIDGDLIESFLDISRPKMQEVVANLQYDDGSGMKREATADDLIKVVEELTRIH", "experiment": "Degradation of mutant and WT ENL in mENL-transfected HEK293T cells (Western blot)", "type": "cell-based", "method": "Ability of compound 1 to degrade mutant ENL, which has been implicated to cause Wilms tumor, was evaluated. […] A pcDNA3.1(+)-N-DYK plasmid containing a mutant ENL (mENL) with a short insertion of -NHL- between L117 and R118 [38] was transfected into 5 × 10^5 HEK293T cells. Upon incubation for 24 h, expression of the FLAG-tagged mENL can be dose-dependently detected with as low as 0.04 μg of the plasmid (Fig. 7a). Using a FLAG antibody appeared to be less quantitative because of a higher background staining for the control samples (Fig. 7a–c, left panels).\nWith 0.1 μg of the plasmid, compound 1 can efficiently degrade both WT and mutant ENL proteins with Dmax of ~ 95% at ~ 500 nM upon 24 h incubation (Fig. 7b). […] It was ineffective with 1 μg of the plasmid (not shown), presumably because the rate of mENL synthesis in cells was higher than that of 1-mediated degradation.\nas §1"}, "[6]": {"system": "HoxA9, Meis1 and Myc", "experiment": "qPCR expression of HoxA9, Meis1 and Myc in Molm-13 cells", "type": "cell-based", "settings": "4 days", "method": "Previous studies show ENL is required for expression of MLL1-target genes in MLL1-r leukemia. How compound 1-mediated ENL degradation changes expression of HoxA9, Meis1 and Myc, three characteristic genes in MLL1-r leukemia, was examined. Molm-13 cells were treated with compound 1 for 4 days, after which the RNAs were extracted and analyzed.\n10^5 cells/mL were incubated with a compound for 4 days and the RNA was extracted using RNeasy mini kit (#74104, Qiagen). 100–1000 ng of total RNA was reverse transcribed using iScript™ Reverse Transcription Supermix (Bio-Rad) using the manufacturer’s protocol. Quantitative real-time PCR was carried out using Fast SYBR Green Master Mix (Applied Biosystems) according to the manufacturer’s instructions. Measurements were performed in triplicate, using GAPDH as the reference gene. Real-time PCR was performed using Biosystems Step One Plus detection system. The following sequences of primers are used: • MYC (forward: 5′-[…]-3′; reverse: 5′-[…]-3′); • HoxA9 (forward: 5′-[…]-3′; reverse: 5′-[…]-3′); • Meis1 (forward: 5′-[…]-3′; reverse: 5′-[…]-3′); • GAPDH (forward: 5′-[…]-3′; reverse: 5′-[…]-3′)."}, "[7]": {"biological_target": "T2, ENL (Homo sapiens, UniProt Q03111)", "T2 sequence (Q03111 1-559)": "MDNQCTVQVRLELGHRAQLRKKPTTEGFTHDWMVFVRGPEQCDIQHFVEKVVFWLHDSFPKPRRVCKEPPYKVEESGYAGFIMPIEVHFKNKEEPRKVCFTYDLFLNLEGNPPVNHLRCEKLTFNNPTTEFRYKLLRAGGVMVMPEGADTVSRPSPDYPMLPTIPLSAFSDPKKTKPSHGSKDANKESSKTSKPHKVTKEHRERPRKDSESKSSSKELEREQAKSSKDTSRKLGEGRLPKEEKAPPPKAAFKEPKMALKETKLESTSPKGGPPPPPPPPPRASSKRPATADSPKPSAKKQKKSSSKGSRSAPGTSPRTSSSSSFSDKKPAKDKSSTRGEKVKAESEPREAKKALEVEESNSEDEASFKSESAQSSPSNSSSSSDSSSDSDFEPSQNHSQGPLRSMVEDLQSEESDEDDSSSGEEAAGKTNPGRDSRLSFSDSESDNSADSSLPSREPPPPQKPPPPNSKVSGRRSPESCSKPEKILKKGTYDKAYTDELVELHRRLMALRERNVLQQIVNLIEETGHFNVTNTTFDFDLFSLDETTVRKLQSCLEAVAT", "experiment": "ENL in nucleus and cytoplasm of MV4;11 cells (Western blot)", "type": "cell-based", "parameters": "endogenous in cells; host or cells: MV4;11", "settings": "4 days", "method": "Upon treatment of MV4;11 cells with these compounds for 4 days, cytoplasmic and nuclear proteins were separated and subjected to SDS-PAGE/Western blot.\n3 × 10^6 cells/well were treated with increasing concentrations of a compound for 1 day, and whole proteins were extracted. Equal amounts of proteins were separated on SDS-PAGE and transferred to PVDF membranes. The blots were probed with primary antibodies, followed by anti-rabbit IgG (Thermo Scientific) secondary antibodies."}, "[8]": {"system": "blood and solid tumor cells", "experiment": "Antiproliferation assay, ranges given over several cell lines", "type": "cell-based", "settings": "AML Kasumi-1, myeloma RPMI-8226 and U266; read-out: EC50 against Kasumi-1, RPMI-8226 and U266 cells (range over cell lines)"}},
  "note": "Entries after “also recorded” stand apart in the source; their conditions may differ.",
  "data": [
    {"smiles": "C[C@H]1CCCN1Cc1nc2cc(NC(=O)c3ccc4c(cnn4CCCCCCCCNc4cccc5c4C(=O)N(C4CCC(=O)NC4=O)C5=O)c3)ccc2[nH]1", "note": "(stereo partly shown) [Compound 1]", "values": [
      {"measurement": "EC50", "setting": "[1]", "value": "> 50", "unit": "µM"},
      {"measurement": "EC50", "setting": "[2]", "value": "1.2 ± 0.23", "unit": "µM"},
      {"measurement": "Overexpression of HoxA11 and HoxA13", "setting": "[3]", "value": "significantly inhibited overexpression"},
      {"measurement": "Body weight", "setting": "[4]", "value": "did not cause significant weight losses"},
      {"measurement": "Hematopoiesis and overt toxicities", "setting": "[4]", "value": "did not inhibit normal hematopoiesis or cause other overt toxicities"},
      {"measurement": "Blood cell counts versus control", "setting": "[4]; blood test on day-14, 30 mg/kg/day", "value": "no significant changes; also recorded: no significant differences"},
      {"measurement": "Degradation of WT and mutant ENLs", "setting": "[5]; 0.2 μg of the plasmid, 500 nM, 24 h", "value": "reduced efficiency"},
      {"measurement": "Degradation of WT and mutant ENLs", "setting": "[5]; 1 μg of the plasmid", "value": "ineffective"},
      {"measurement": "Dmax", "setting": "[5]; HEK-293T, 0.1 μg of the plasmid, ~ 500 nM, 24 h", "value": "~95", "unit": "%"},
      {"measurement": "Expression of HoxA9, Meis1 and Myc", "setting": "[6]", "value": "significantly inhibit expression"},
      {"measurement": "ENL level in the cytoplasmic extract", "setting": "[7]", "value": "significantly reduced"},
      {"measurement": "ENL level in the nucleus", "setting": "[7]; compound 1 at 500 nM", "value": "almost depleted"},
      {"measurement": "EC50", "setting": "[8]", "value": "1.1 to 4.1", "unit": "µM"}
    ]}
  ]
}
